The values below are quoted from earlier work in patent US8809210B2, “Low roughness high surface-energy, anti-microbial fabric” (priority 2009, dated 2014).

The conditions of the data set: when covalently bonded to a surface.

Take `CCCCCCCCCCCCCCCCCC[N+](C)(C)CCC[Si](OC)(OC)OC.[Cl-]` [Si-QAC, 3-(Trimethoxysilyl)-propyldimethyloctadecyl ammonium chloride]: the antimicrobial activity entry was “antimicrobial activity”.
